Source: PubChem BioAssay AID220 (DTP/NCI, 2004)
Where “and” joins values, the source holds several entries; their conditions need not be identical. Identical values can stand only once. Inconclusive results are not listed.

System: CD8F1 mice, subcutaneous mammary adenocarcinoma, T/C%
Assay: NCI In Vivo Anticancer Drug Screen. Data for tumor model Mammary Adenocarcinoma CD8F1 (subcutaneous) in CD8F1
Details: higher = larger tumour
How it was run: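 Ratio of treated to vehicle-control outcome, based on either survival or tumor size, in mice bearing transplantable tumors given the test compound.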

[1] = endpoint: median tumor weight (est.), dose: 50.0 mg/kg/injection, schedule: Q07DX005 (ip), vehicle: saline
[2] = endpoint: median tumor weight (est.), dose: 100.0 mg/kg/injection, schedule: Q07DX005 (ip), vehicle: saline
[3] = endpoint: median tumor weight (est.), dose: 200.0 mg/kg/injection, schedule: Q07DX005 (ip), vehicle: saline
[4] = endpoint: median tumor weight change, dose: 250.0 mg/kg/injection, schedule: Q01DX001 (ip), vehicle: saline with Tween-80
[5] = endpoint: median tumor weight change, dose: 500.0 mg/kg/injection, schedule: Q01DX001 (ip), vehicle: saline with Tween-80
[6] = endpoint: median tumor weight (est.), dose: 25.0 mg/kg/injection, schedule: Q07DX005 (ip), vehicle: Klucel (hydroxypropylcellulose) (HPC)
[7] = endpoint: median tumor weight (est.), dose: 12.5 mg/kg/injection, schedule: Q07DX005 (ip), vehicle: saline with Tween-80
[8] = endpoint: median tumor weight (est.), dose: 50.0 mg/kg/injection, schedule: Q07DX005 (ip), vehicle: saline with Tween-80
[9] = endpoint: median tumor weight (est.), dose: 400.0 mg/kg/injection, schedule: Q07DX005 (ip), vehicle: saline with Tween-80

For `NC1=NCN(C2OC(CO)C(O)C2O)C(=O)N1` (centres undefined), the T/C (endpoint: median tumor weight (est.), dose: 25.0 mg/kg/injection, schedule: Q07DX004 (ip), vehicle: saline) was 74 % of control, the T/C (endpoint: median tumor weight (est.), dose: 25.0 mg/kg/injection, schedule: Q07DX005 (ip), vehicle: suspension in saline) was 59 % of control and the T/C (endpoint: median tumor weight (est.), dose: 50.0 mg/kg/injection, schedule: Q07DX004 (ip), vehicle: saline) was 76 % of control. The T/C (endpoint: median tumor weight (est.), dose: 50.0 mg/kg/injection, schedule: Q07DX005 (ip), vehicle: suspension in saline) was 45 % of control, the T/C (endpoint: median tumor weight (est.), dose: 100.0 mg/kg/injection, schedule: Q07DX004 (ip), vehicle: saline) was 107 % of control and the T/C (endpoint: median tumor weight (est.), dose: 100.0 mg/kg/injection, schedule: Q07DX005 (ip), vehicle: suspension in saline) was 56 % of control. The T/C (endpoint: median tumor weight (est.), dose: 200.0 mg/kg/injection, schedule: Q07DX004 (ip), vehicle: saline) was 72 % of control, the T/C (endpoint: median tumor weight (est.), dose: 200.0 mg/kg/injection, schedule: Q07DX005 (ip), vehicle: suspension in saline) was 61 % of control and the T/C (endpoint: median tumor weight (est.), dose: 400.0 mg/kg/injection, schedule: Q07DX004 (ip), vehicle: saline) was 49 % of control. The T/C (endpoint: median tumor weight (est.), dose: 400.0 mg/kg/injection, schedule: Q07DX005 (ip), vehicle: suspension in saline) was 34 % of control, the T/C (endpoint: median tumor weight (est.), dose: 800.0 mg/kg/injection, schedule: Q07DX004 (ip), vehicle: saline) was 35 % of control and the T/C (endpoint: median tumor weight (est.), dose: 800.0 mg/kg/injection, schedule: Q07DX005 (ip), vehicle: suspension in saline) was 13 % of control.

For `Cc1ccccc1N(CC1CO1)CC1CO1` (centres undefined), the T/C [1] was 74 % of control, the T/C [2] was 79 % of control and the T/C [3] was 105 % of control. The T/C (endpoint: median tumor weight (est.), dose: 400.0 mg/kg/injection, schedule: Q07DX005 (ip), vehicle: saline) was 63 % of control.

`O=NN(CCCl)C(=O)NCCO` was tested, and the T/C (endpoint: median tumor weight change, dose: 4.0 mg/kg/injection, schedule: Q01DX001 (ip), vehicle: water) was 92 % of control, the T/C (endpoint: median tumor weight change, dose: 8.0 mg/kg/injection, schedule: Q01DX001 (ip), vehicle: water) was 86 % of control and the T/C (endpoint: median tumor weight change, dose: 16.0 mg/kg/injection, schedule: Q01DX001 (ip), vehicle: water) was 58 % of control.

`O=C(O)C1Cc2nc[nH]c2CN1CO` (centres undefined) was tested, and the T/C (endpoint: median tumor weight change, dose: 125.0 mg/kg/injection, schedule: Q01DX001 (ip), vehicle: saline with Tween-80) was 118 % of control, the T/C [4] was 94 % of control and the T/C [5] was 93 % of control. For the same compound, the T/C (endpoint: median tumor weight change, dose: 1000.0 mg/kg/injection, schedule: Q01DX001 (ip), vehicle: saline with Tween-80) was 77 % of control and the T/C (endpoint: median tumor weight change, dose: 2000.0 mg/kg/injection, schedule: Q01DX001 (ip), vehicle: saline with Tween-80) was 81 % of control.

In the case of `O=CC=O`, the T/C [6] is reported as 92 % of control and 100 % of control.

With `c1cc[c]([Sn][c]2ccccc2)cc1` the T/C (endpoint: median tumor weight (est.), dose: 1.25 mg/kg/injection, schedule: Q07DX005 (ip), vehicle: saline) was 101 % of control, the T/C (endpoint: median tumor weight (est.), dose: 2.5 mg/kg/injection, schedule: Q07DX005 (ip), vehicle: saline) was 91 % of control and the T/C (endpoint: median tumor weight (est.), dose: 5.0 mg/kg/injection, schedule: Q07DX005 (ip), vehicle: saline) was 86 % of control. The T/C (endpoint: median tumor weight (est.), dose: 10.0 mg/kg/injection, schedule: Q07DX005 (ip), vehicle: saline) was 68 % of control and the T/C (endpoint: median tumor weight (est.), dose: 20.0 mg/kg/injection, schedule: Q07DX005 (ip), vehicle: saline) was 50 % of control.

With `CCCC(=O)Oc1ccc(/C=N/NC(N)=S)nc1` the T/C [7] was 279 % of control and 100 % of control, the T/C [8] was 83 % of control and 101 % of control and the T/C [9] was 121 % of control.

`CC(=O)OC1C(O)C(C)OC(OC2C(OC(=O)C3CCC4C(C3)OC3(CC(OC(=O)/C=C/c5ccccc5)C(C)CO3)C43CO3)OC(C)C(O)C2OC(C)=O)C1O` (centres undefined) was tested, and the T/C (endpoint: median tumor weight change, dose: 10.0 mg/kg/injection, schedule: Q01DX001 (ip), vehicle: distilled water + Tween-80) was 107 % of control, the T/C (endpoint: median tumor weight change, dose: 40.0 mg/kg/injection, schedule: Q01DX001 (ip), vehicle: distilled water + Tween-80) was 100 % of control and the T/C (endpoint: median tumor weight change, dose: 80.0 mg/kg/injection, schedule: Q01DX001 (ip), vehicle: distilled water + Tween-80) was 110 % of control.

For `Cc1cc(NCCCN(C)C)c2ccc3c(ccc4c(NCCCN(C)C)cc(C)nc43)c2n1`, the T/C (endpoint: median tumor weight change, dose: 3.9 mg/kg/injection, schedule: Q01DX001 (ip), vehicle: saline) was 87 % of control and the T/C (endpoint: median tumor weight change, dose: 7.81 mg/kg/injection, schedule: Q01DX001 (ip), vehicle: saline) was 98 % of control.

`C(C#CCN1CCOCC1)#CCN1CCOCC1` was tested, and the T/C [6] was 181 % of control, the T/C (endpoint: median tumor weight (est.), dose: 50.0 mg/kg/injection, schedule: Q07DX005 (ip), vehicle: Klucel (hydroxypropylcellulose) (HPC)) was 43 % of control and the T/C (endpoint: median tumor weight (est.), dose: 100.0 mg/kg/injection, schedule: Q07DX005 (ip), vehicle: Klucel (hydroxypropylcellulose) (HPC)) was 48 % of control. For the same compound, the T/C (endpoint: median tumor weight (est.), dose: 200.0 mg/kg/injection, schedule: Q07DX005 (ip), vehicle: Klucel (hydroxypropylcellulose) (HPC)) was 41 % of control, the T/C (endpoint: median tumor weight (est.), dose: 400.0 mg/kg/injection, schedule: Q07DX005 (ip), vehicle: Klucel (hydroxypropylcellulose) (HPC)) was 68 % of control and the T/C (endpoint: median tumor weight (est.), dose: 800.0 mg/kg/injection, schedule: Q07DX005 (ip), vehicle: Klucel (hydroxypropylcellulose) (HPC)) was 62 % of control.

In the case of `Cc1ncc([N+](=O)[O-])n1CCSC(N)=O`, the T/C [7] is reported as 124 % of control and 99 % of control, the T/C [8] is reported as 123 % of control and the T/C (endpoint: median tumor weight (est.), dose: 100.0 mg/kg/injection, schedule: Q07DX005 (ip), vehicle: saline with Tween-80) is reported as 96 % of control. For the same compound, the T/C [9] was 66 % of control.

For `CCN(CC)CCNc1ccc(C)c2sc3ccccc3c(=O)c12`, the T/C (endpoint: median tumor weight (est.), dose: 12.5 mg/kg/injection, schedule: Q07DX005 (ip), vehicle: saline) was 156 % of control, the T/C (endpoint: median tumor weight (est.), dose: 25.0 mg/kg/injection, schedule: Q07DX005 (ip), vehicle: saline) was 198 % of control and the T/C [1] was 166 % of control. The T/C [2] was 76 % of control and the T/C [3] was 42 % of control.

With `CC1OC1C(=O)C1(O)C(C)C(O)C23OC2(C(O)c2c(O)cccc2C3=O)C1O` (centres undefined) the T/C (endpoint: median tumor weight change, dose: 10.0 mg/kg/injection, schedule: Q01DX001 (ip), vehicle: Klucel (hydroxypropylcellulose) (HPC)) was 84 % of control and 100 % of control and 107 % of control and the T/C (endpoint: median tumor weight change, dose: 40.0 mg/kg/injection, schedule: Q01DX001 (ip), vehicle: Klucel (hydroxypropylcellulose) (HPC)) was 66 % of control and 87 % of control.

`CN=S(=O)(OCCCCCOS(=O)(=NC)c1ccccc1)c1ccccc1` (centres undefined) was tested, and the T/C (endpoint: median tumor weight change, dose: 62.0 mg/kg/injection, schedule: Q01DX001 (ip), vehicle: saline with Tween-80) was 121 % of control, the T/C (endpoint: median tumor weight change, dose: 62.5 mg/kg/injection, schedule: Q01DX001 (ip), vehicle: saline with Tween-80) was 59 % of control and the T/C [4] was 63 % of control and 83 % of control. The T/C [5] was 20 % of control.

In the case of `COc1cccc2c1C(=O)c1c(O)c3c(c(O)c1C2=O)C[C@@](O)(/C(C)=N/NC(=O)c1ccccc1)C[C@@H]3OC1CC(N)C(O)C(C)O1` (some centres undefined), the T/C (endpoint: median tumor weight (est.), dose: 3.12 mg/kg/injection, schedule: Q07DX005 (ip), vehicle: water) is reported as 263 % of control and the T/C (endpoint: median tumor weight (est.), dose: 6.25 mg/kg/injection, schedule: Q07DX005 (ip), vehicle: water) is reported as 82 % of control.

In the case of `O=C(N/N=C\c1cc(Br)cc(Br)c1O)N/N=C/c1cc(Br)cc(Br)c1O`, the T/C [8] is reported as 60 % of control, the T/C (endpoint: median tumor weight (est.), dose: 200.0 mg/kg/injection, schedule: Q07DX005 (ip), vehicle: saline with Tween-80) is reported as 100 % of control and the T/C [9] is reported as 391 % of control.
